Positions count from the first letter of the chain named. Entries after “also recorded” stand apart in the source; their conditions may differ.
Experiments:
UGT2B17 = target: T1, UGT2B17 (Homo sapiens, UniProt O75795); assay: SAHA glucuronidation, UGT2B17-overexpressing HEK293 cell homogenate; format: in vitro ADME
T1 sequence (O75795 24-530): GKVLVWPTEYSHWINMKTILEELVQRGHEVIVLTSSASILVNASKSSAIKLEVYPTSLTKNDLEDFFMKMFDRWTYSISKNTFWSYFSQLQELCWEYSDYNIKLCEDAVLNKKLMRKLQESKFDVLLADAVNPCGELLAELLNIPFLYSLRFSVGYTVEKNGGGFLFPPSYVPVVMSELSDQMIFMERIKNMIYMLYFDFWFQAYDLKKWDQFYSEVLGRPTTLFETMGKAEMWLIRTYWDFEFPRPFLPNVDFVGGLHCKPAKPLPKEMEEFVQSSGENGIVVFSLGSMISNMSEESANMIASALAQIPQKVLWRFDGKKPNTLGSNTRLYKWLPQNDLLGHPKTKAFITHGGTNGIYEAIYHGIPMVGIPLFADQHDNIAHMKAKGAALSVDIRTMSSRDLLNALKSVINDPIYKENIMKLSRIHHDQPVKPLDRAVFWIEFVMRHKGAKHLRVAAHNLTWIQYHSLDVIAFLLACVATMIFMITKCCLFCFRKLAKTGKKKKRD

UGT2B15 = target: T2, UGT2B15 (Homo sapiens, UniProt P54855); assay: SAHA glucuronidation screen, UGT2B15-overexpressing cell homogenate; format: in vitro ADME; conditions: 400 μg UGT-overexpressing cell homogenate, 1-h incubation
T2 sequence (P54855 24-530): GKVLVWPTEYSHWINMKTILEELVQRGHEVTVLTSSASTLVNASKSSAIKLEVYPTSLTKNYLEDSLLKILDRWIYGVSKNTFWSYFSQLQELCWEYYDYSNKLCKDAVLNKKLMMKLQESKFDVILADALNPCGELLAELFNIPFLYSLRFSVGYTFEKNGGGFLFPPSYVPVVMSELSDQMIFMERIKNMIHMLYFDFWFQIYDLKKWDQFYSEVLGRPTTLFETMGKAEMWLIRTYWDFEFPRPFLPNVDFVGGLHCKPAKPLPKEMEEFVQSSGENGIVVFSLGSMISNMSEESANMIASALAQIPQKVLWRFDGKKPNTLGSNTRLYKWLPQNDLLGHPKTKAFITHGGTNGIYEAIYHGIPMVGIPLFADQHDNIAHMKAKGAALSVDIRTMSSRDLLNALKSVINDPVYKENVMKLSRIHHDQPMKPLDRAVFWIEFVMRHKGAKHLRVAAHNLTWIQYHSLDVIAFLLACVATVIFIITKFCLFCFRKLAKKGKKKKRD

[1] = target: T3, UGT1A8*2 (UGT1A8p.Ala173Gly) (Homo sapiens, UniProt Q9HAW9, A173G); assay: SAHA glucuronidation, UGT1A8*2 variant cell homogenate; format: in vitro ADME
T3 sequence (Q9HAW9 26-530 A173G): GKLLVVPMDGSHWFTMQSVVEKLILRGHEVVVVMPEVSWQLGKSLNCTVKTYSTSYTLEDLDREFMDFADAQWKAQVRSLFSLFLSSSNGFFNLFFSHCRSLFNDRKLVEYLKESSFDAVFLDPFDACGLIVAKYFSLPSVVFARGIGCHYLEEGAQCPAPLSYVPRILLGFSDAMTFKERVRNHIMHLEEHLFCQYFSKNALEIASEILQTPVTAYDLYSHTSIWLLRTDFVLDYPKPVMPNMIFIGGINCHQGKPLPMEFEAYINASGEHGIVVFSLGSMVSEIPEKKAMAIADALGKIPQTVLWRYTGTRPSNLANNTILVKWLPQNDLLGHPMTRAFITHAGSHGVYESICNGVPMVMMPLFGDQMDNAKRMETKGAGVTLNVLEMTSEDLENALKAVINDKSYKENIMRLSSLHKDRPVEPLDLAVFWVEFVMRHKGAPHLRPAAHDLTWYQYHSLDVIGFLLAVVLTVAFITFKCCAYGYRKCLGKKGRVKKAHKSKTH

[2] = target: T4, UGT1A8*3 (UGT1A8p.Cys277Tyr) (Homo sapiens, UniProt Q9HAW9, C277Y); assay: Glucuronidation, UGT1A8*3 variant cell homogenate; format: in vitro ADME; conditions: using up to 8 mmol/L SAHA
T4 sequence (Q9HAW9 26-530 C277Y): T3 sequence (Q9HAW9 26-530 A173G) with G148A, C252Y

UGT1A4 = target: T5, UGT1A4 (Homo sapiens, UniProt P22310); assay: SAHA glucuronidation screen, UGT1A4-overexpressing cell homogenate; format: in vitro ADME
T5 sequence (P22310 29-534): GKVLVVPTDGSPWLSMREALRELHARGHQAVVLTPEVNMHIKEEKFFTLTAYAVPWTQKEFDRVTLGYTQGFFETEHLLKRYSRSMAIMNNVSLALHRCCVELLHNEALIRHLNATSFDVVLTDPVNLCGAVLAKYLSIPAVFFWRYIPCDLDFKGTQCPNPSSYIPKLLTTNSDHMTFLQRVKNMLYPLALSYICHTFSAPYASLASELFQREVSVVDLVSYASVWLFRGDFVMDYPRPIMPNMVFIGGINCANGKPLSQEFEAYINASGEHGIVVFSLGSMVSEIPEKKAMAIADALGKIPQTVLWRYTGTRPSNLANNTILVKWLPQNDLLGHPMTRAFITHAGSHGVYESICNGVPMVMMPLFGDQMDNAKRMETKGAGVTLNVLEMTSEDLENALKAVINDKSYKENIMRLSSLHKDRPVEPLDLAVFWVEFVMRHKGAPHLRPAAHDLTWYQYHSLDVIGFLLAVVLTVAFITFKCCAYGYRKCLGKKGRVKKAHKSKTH

[3] = 400 μg UGT-overexpressing cell homogenate, 1-h incubation

O=C(CCCCCCC(=O)Nc1ccccc1)NO [SAHA, Suberoylanilide hydroxamic acid]
glucuronidation against SAHA (screen) (UGT2B17; [3]): high levels of glucuronidation
apparent KM of UGT2B17 lower than that of UGT1A3 (UGT2B17; against SAHA): 11 fold
apparent KM of UGT2B17 lower than that of UGT1A9 (UGT2B17; against SAHA): 5 fold
higher level of glucuronidation activity (Vmax/KM) of UGT2B17 compared with UGT1A3 (UGT2B17; against SAHA): 9.4 fold
higher level of glucuronidation activity (Vmax/KM) of UGT2B17 compared with UGT1A9 (UGT2B17; against SAHA): 2.3 fold
Km at 1 h (UGT2B17; human, UGT2B17-overexpressing HEK293 cell homogenate, pH 7.5): 300 ± 100 µM
glucuronidation activity against SAHA (screen) (UGT2B15): No detectable glucuronidation activity
decrease in glucuronidation activity against SAHA compared with wild-type UGT1A8 ([1]; UGT1A8p.Ala173Gly variant, P < 0.005): 3 fold
Km at 1 h ([1]; human, UGT1A8*2 variant-overexpressing cell homogenate, pH 7.5): 3000 ± 700 µM
SAHA-glucuronide formation, HLM with one versus two intact UGT2B17 alleles (200 μmol/L SAHA): No difference
decrease in SAHA-glucuronide formation, UGT2B17 (*2/*2) HLM versus HLM with intact UGT2B17 (200 μmol/L SAHA, 20 μg HLM protein, 100 subjects): 45%
increase in KM, UGT2B17 (*2/*2) HLM versus UGT2B17 (*1/*1) HLM (13 HLM per genotype, 65 to 8,000 μmol/L SAHA): 75%
change in Vmax between UGT2B17 genotype subgroups (HLM (*1/*1) versus (*2/*2)): No change
share of hepatic SAHA glucuronidation from UGT2B17 (from UGT2B17-deleted versus wild-type HLM): ~ 45%
glucuronidation activity against SAHA [2]: no detectable glucuronidation activity; also recorded: inactive
glucuronidation against SAHA (UGT1A4; [3]): detectable levels of glucuronidation
Km at 1 h (UGT1A4; human, UGT1A4-overexpressing cell homogenate, pH 7.5): > 8000 µM

From PMC2694132 (Cancer research, 2009)
